From US12599560B2, “Lipids and lipid nanoparticle formulations” (Longuide Biopharma Corporation, priority 2023, dated 2026)

Experiments:
Delta-S protein = assay: In vivo immunization with Delta Spike mRNA LNP, serum ELISA for specific antibody; parameters: species or system mice; conditions: serum after second administration; IM
Procedure: Lipid nanoparticles encapsulating the nucleic acid drugs were prepared according to step 2. The mRNA was replaced with Delta Spike full length mRNA (Shanghai Zhaowei Science and Technology Development Co., Ltd.) and then administered to the mice at a dose of 5 μg per mouse, and on the 14th day after the first immunization, the whole blood of the mice was collected by canthus sampling, and the drug administration was repeated for the second immunization. On the 14th day after the second immunization, the whole blood was collected from mice by canthus sampling. The whole blood was centrifuged at 5000 rcf for 5 mn, and the supernatant was centrifuged at 10000 rcf for 5 min to obtain the serum, which was aliquated into serial tubes and stored in the refrigerator at −20° C.
• 9.2.1 Coating: Add 100 μL of 0.2 μg/100 μL Delta-S protein (Novoprotein Scientific Inc.) dilution solution to each well, and leave it in the refrigerator at 4° C. overnight. • 9.2.2 Washing: Add 200 μL of PBST (PBS buffer solution containing 0.05% Tween-20 at pH 7.4) to each well and wash three times. • 9.2.3 Blocking: Add 200 μL of 5% (w/v) BSA-PBS solution (BSA bovine serum albumin, Bioss Biotechnology Co., Ltd.) to each well, and shake for 2 h at 50 rcf at room temperature using a shaker. • 9.2.4 Washing: Add 200 μL of PBST to each well to wash once. • 9.2.5 Adding samples: Add 100 μL of serum diluted 200 times with PBS (0.5 μL of serum) to each well (for the ELISA titer assay, serum diluted 200 times, 800 times, 3200 times, 12800 times, 51200 times, 204800 times), and shake at room temperature for 2 h at 50 rcf using a shaker. • 9.2.6 Washing: Add 200 μL of PBST into each well for three times. • 9.2.7 Adding detection antibody: Add 100 μL of HRP-labeled goat anti-mouse IgG detection antibody (0.1 μL of antibody master batch) (Sangon Biotech (Shanghai) Co., Ltd.) diluted 1000-fold into each well, and shake at 50 rcf for 1 h at room temperature using a shaker. • 9.2.8 Washing: Add 200 μL of PBST to each well and wash three times. • 9.2.9 Adding TMB (Beijing Solarbio Science & Technology Co., Ltd.): Add 50 μL of TMB mixture with the volume ratio of liquid A:liquid B of 1:1 to each well, and react for 5 mn (ELISA of blood sample I), 7 min 58 sec (ELISA of blood sample II), and react for about 5 min (ELISA titer of blood sample II). • 9.2.10 Adding phosphate (Aladdin Reagent (Shanghai) Co., Ltd.): add 50 μL of 1 mol/L phosphate per well to terminate the reaction. • 9.2.11 Detection: Use multi-function plate reader for detection. 9.3. Neutralization Antibody Levels Detected by Pseudovirus Neutralization Assay • 9.3.1 Cell seeding: 293T-ACE2 cells (Fubio (Suzhou) Biomedical Technology Co., Ltd.) were inoculated with 1×10^5 cells in each well of a 48-well plate at a concentration of 1×10^5 cells in 300 μL of DMEM medium (containing 10% heat-inactivated FBS without bispecific antibody), the 48-well plate was labeled with information such as “number, cell type, number of generations, medium type, date and name”, and then the cells were cultured in a cell culture incubator at 37° C. with 5% CO2 for 18 hours. • 9.3.2 Before the pseudovirus transfection operation, prepare an ice box, re-dissolve the serum to be used on ice, thaw on ice the virus from the −25° C. refrigerator. After thawing, the serum and pseudovirus were flicked homogenously and centrifuged with a palm centrifuge. • 9.3.3 Examine the neutralization antibody with serum diluted in different ratios: use complete culture medium to dilute the pseudovirus (Fubio (Suzhou) Biomedical Technology Co., Ltd.) and mouse serum respectively, mix them well, and then dilute them 40-fold, 100-fold, 250-fold and 625-fold according to the final concentration of the cells of incubation. […]

[1] = Particle size and PDI by dynamic light scattering; format: physicochemical
Procedure: The 7.5 μL nucleic acid lipid nanoparticle solution (containing approximately 0.04 mg/mL mRNA) was taken and added with 200 μL ultrapure water, mixed by gentle blowing using a pipette tip, and the particle size of the nanopreparation was detected by dynamic lightscattering (DLS) using a Malvern Dynamic Light Scattering Instrument (Malvern Instruments Ltd., ZEN3700, UK). 27.5 μL nucleic acid lipid nanoparticle solution (containing about 0.04 mg/mL mRNA) was taken and added with 200 μL ultrapure water. A pipette tip was used to gently blow the sample and mix well. The particle size of the nanopreparation was detected by Malvern Dynamic Light Scattering Instrument (Malvern Instruments Ltd., ZEN3700, UK). After the detection, the sample was recovered to an EP tube, and 600 μL of ultrapure water was added, gently blown with a pipette tip, and the potential of the nanopreparation was measured by a Malvern particle size meter.

mice = assay: In vivo delivery of FLuc-mRNA lipid nanoparticle preparations in mice (IVIS imaging); parameters: In vivo IVIS / In vivo IVIS (liver) / In vivo IVIS (spleen): unit not given here; conditions: for in vivo delivery efficiency as compared to the benchmark compound SM102: certain formulations
Procedure: 7. In Vivo Delivery of the Nucleic Acid Lipid Nanoparticle Preparations in Mice After the preparation was completed, the preparation was injected intramuscularly (mice rectus femoris muscle of the thigh) or intravenously (mice tail vein), with approximately 75 μL per mouse, for a total of 3 mice. After a certain time of injection, in vivo imaging (PerkinElmer, IVIS Lumina III) was performed. 10-15 minutes before imaging, 200 μL of 15 mg/mL D-Luciferin working solution was injected intraperitoneally, and the imaging analysis was performed using an in vivo imager.

[2] = Table 2, IV, whole body scan, molar ratio DMG-PEG2000:DSPC:Chol:Lipid and N/P
[3] = Table 2, LNP formulation with mRNA
[4] = Table 4, molar ratio 1.40:11.15:38.95:48.50, N/P 36, IV formulation
[5] = Table 4, molar ratio 2.00:4.00:59.00:35.00, N/P 35, IM formulation
[6] = Table 4, molar ratio 1.40:11.15:38.95:48.50, N/P 32, IV formulation

CCCCCCOCOCCCCCCOC(=O)C(O)CN(CCCN1CCN(CCCN(CC(O)C(=O)OCCCCCCOCOCCCCCC)CC(O)C(=O)OCCCCCCOCOCCCCCC)CC1)CC(O)C(=O)OCCCCCCOCOCCCCCC (stereo not shown) [Compound L0192]
OD 450 nm-630 nm (Delta-S protein): 1.68
Particle size (nm) ([1]; Table 2, LNP formulation with mRNA, molar ratio 1.50:4.00:59.50:35.00, N/P 65): 112.83 ± 0.31 nm
Particle size (nm) ([1]; Table 2, LNP formulation with mRNA, molar ratio 1.77:14.07:49.16:35.00, N/P 54): 96.59 ± 0.78 nm
Particle size (nm) ([1]; Table 2, LNP formulation with mRNA, molar ratio 1.77:14.07:59.16:25.00, N/P 52): 113.33 ± 1.07 nm
PDI ([1]; Table 2, polydispersity value, molar ratio 1.50:4.00:59.50:35.00, N/P 65): 0.15 ± 0.01
PDI ([1]; Table 2, polydispersity value, molar ratio 1.77:14.07:49.16:35.00, N/P 54): 0.08 ± 0.02
PDI ([1]; Table 2, polydispersity value, molar ratio 1.77:14.07:59.16:25.00, N/P 52): 0.11 ± 0.02
In vivo IVIS (mice; [2]): 5.56 × 10^10
in vivo delivery efficiency as compared to the benchmark compound SM102 (mice; Table 2): superior in vivo delivery efficiency

CCCCCCC(CCCCCC)C(=O)OCCCCCCOC(=O)C(O)CN1CCN(CCN(CC(O)C(=O)OCCCCCCOC(=O)C(CCCCCC)CCCCCC)CC(O)C(=O)OCCCCCCOC(=O)C(CCCCCC)CCCCCC)CC1 (stereo not shown) [Compound L0187]
OD 450 nm-630 nm (Delta-S protein): 1.70
Particle size (nm) [1, 3]: 80.11 ± 0.17 nm
PDI ([1]; Table 2, polydispersity value): 0.12 ± 0.01
In vivo IVIS (mice; Table 2, IM, whole body scan): 9.72 × 10^7
In vivo IVIS (liver) (mice; Table 2, IV, liver): 2.46 × 10^7
In vivo IVIS (spleen) (mice; Table 2, IV, spleen): 2.00 × 10^7
In vivo IVIS (mice; [2]): 1.11 × 10^8
in vivo delivery efficiency as compared to the benchmark compound SM102 (mice; Table 2): superior in vivo delivery efficiency

CCCCCCCCCCOC(=O)C(O)CN(CCCN1CCN(CCCN(CC(O)C(=O)OCCCCCCCCCC)CC(O)C(=O)OCCCCCCCCCC)CC1)CC(O)C(=O)OCCCCCCCCCC (stereo not shown) [Compound L0209]
Particle size (nm) ([1]; Table 4, molar ratio 1.00:6.00:44.50:48.50, N/P 40, IV formulation): 99.95 ± 0.74 nm
Particle size (nm) ([1]; Table 4, molar ratio 1.50:6.00:57.50:35.00, N/P 48, IM formulation): 84.17 ± 0.31 nm
In vivo IVIS (mice; Table 4, IM): 7.33 × 10^8
In vivo IVIS (mice; Table 4, IV): 1.52 × 10^10

CCCCCCOC(C)OCCCCCCOC(=O)C(O)CN(CCCN1CCN(CCCN(CC(O)C(=O)OCCCCCCOC(C)OCCCCCC)CC(O)C(=O)OCCCCCCOC(C)OCCCCCC)CC1)CC(O)C(=O)OCCCCCCOC(C)OCCCCCC (stereo not shown) [Compound L0224]
PDI [1, 4]: 0.07 ± 0.02
Particle size (nm) [1, 4]: 108.57 ± 1.60 nm
PDI [1, 5]: 0.14 ± 0.01
Particle size (nm) [1, 5]: 84.67 ± 0.79 nm
In vivo IVIS (mice; Table 4, IM): 3.31 × 10^8
In vivo IVIS (mice; Table 4, IV): 4.84 × 10^9

CCCCCCCCCCNC(=O)C(O)CN(CCN1CCN(CCN(CC(O)C(=O)NCCCCCCCCCC)CC(O)C(=O)NCCCCCCCCCC)CC1)CCN(CC(O)C(=O)NCCCCCCCCCC)CC(O)C(=O)NCCCCCCCCCC (stereo not shown) [Compound L0198]
Particle size (nm) [1, 3]: 90.47 ± 0.74 nm
PDI ([1]; Table 2, polydispersity value): 0.17 ± 0.01
In vivo IVIS (mice; Table 2, IM, whole body scan): 9.58 × 10^6
In vivo IVIS (mice; [2]): 4.61 × 10^7

CCCCCCCCCCCCNC(=O)C(O)CN(Cc1ccc(CN(CC(O)C(=O)NCCCCCCCCCCCC)CC(O)C(=O)NCCCCCCCCCCCC)cc1)CC(O)C(=O)NCCCCCCCCCCCC (stereo not shown) [Compound L0208]
PDI ([1]; Table 4): 0.14 ± 0.03
Particle size (nm) ([1]; Table 4): 176.67 ± 1.97 nm
In vivo IVIS (mice; Table 4, IM): 1.94 × 10^6
In vivo IVIS (mice; Table 4, IV): 2.27 × 10^5

CCCCCCCCCCNC(=O)C(O)CN(CC(O)C(=O)NCCCCCCCCCC)[C@H]1CC[C@H](N(CC(O)C(=O)NCCCCCCCCCC)CC(O)C(=O)NCCCCCCCCCC)CC1 (stereo partly shown) [Compound L0218]
PDI ([1]; Table 4): 0.07 ± 0.02
Particle size (nm) ([1]; Table 4): 109.43 ± 1.16 nm
In vivo IVIS (mice; Table 4, IM): 8.49 × 10^5
In vivo IVIS (mice; Table 4, IV): 5.55 × 10^5

CCCCCCCCCCCCNC(=O)C(O)CN(CC(O)C(=O)NCCCCCCCCCCCC)[C@H]1CC[C@H](N(CC(O)C(=O)NCCCCCCCCCCCC)CC(O)C(=O)NCCCCCCCCCCCC)CC1 (stereo partly shown) [Compound L0214]
PDI ([1]; Table 4): 0.21 ± 0.01
Particle size (nm) ([1]; Table 4): 177.07 ± 1.00 nm
In vivo IVIS (mice; Table 4, IM): 2.46 × 10^5
In vivo IVIS (mice; Table 4, IV): 3.60 × 10^5

CCCC/C=C\CCOCOCCCCOC(=O)C(O)CN(CCN1CCN(CCN(CC(O)C(=O)OCCCCOCOCC/C=C\CCCC)CC(O)C(=O)OCCCCOCOCC/C=C\CCCC)CC1)CCN(CC(O)C(=O)OCCCCOCOCC/C=C\CCCC)CC(O)C(=O)OCCCCOCOCC/C=C\CCCC (stereo not shown) [Compound L0202]
Particle size (nm) [1, 3]: 114.43 ± 0.96 nm
PDI ([1]; Table 2, polydispersity value): 0.07 ± 0.02
In vivo IVIS (mice; Table 2, IM, whole body scan): 9.20 × 10^7
In vivo IVIS (mice; [2]): 3.73 × 10^9
in vivo delivery efficiency as compared to the benchmark compound SM102 (mice; Table 2): superior in vivo delivery efficiency

CCCCCCC(CCCCCC)C(=O)OCCCCCCOC(=O)C(O)CN(CCCN1CCN(CCCN(CC(O)C(=O)OCCCCCCOC(=O)C(CCCCCC)CCCCCC)CC(O)C(=O)OCCCCCCOC(=O)C(CCCCCC)CCCCCC)CC1)CC(O)C(=O)OCCCCCCOC(=O)C(CCCCCC)CCCCCC (stereo not shown) [Compound L0227]
PDI [1, 6]: 0.15 ± 0.01
Particle size (nm) [1, 6]: 113.50 ± 0.96 nm
PDI [1, 5]: 0.13 ± 0.01
Particle size (nm) [1, 5]: 112.03 ± 0.65 nm
In vivo IVIS (mice; Table 4, IM): 3.49 × 10^8
In vivo IVIS (mice; Table 4, IV): 2.49 × 10^8

CCCC/C=C\CCOCOCCCCOC(=O)C(O)CN1CCN(CCN(CC(O)C(=O)OCCCCOCOCC/C=C\CCCC)CC(O)C(=O)OCCCCOCOCC/C=C\CCCC)CC1 (stereo not shown) [Compound L0222]
PDI ([1]; Table 4): 0.05 ± 0.01
Particle size (nm) ([1]; Table 4): 133.83 ± 0.72 nm
In vivo IVIS (mice; Table 4, IM): 4.38 × 10^5
In vivo IVIS (mice; Table 4, IV): 7.94 × 10^6
